According to patent US20250049970A1, “DLL3 TARGETING PEPTIDES AND CONSTRUCTS THEREOF” (MARIANA ONCOLOGY INC., priority 2023, published 2025):
*1 amine or outer side, *2 acyl side, *3 side chain or, on linkers, in order; H or OH if unused. Where a SMILES comes first, the peptide text is derived from it. Bridges are numbered along the chain shown (N, C = ends). [ ]: non-standard residue; d: D form. The star is where a group is joined. ξ: configuration not given here. Ala(piperidin-4-yl) = O=C([C@H](CC1CCN([*:3])CC1)N[*:1])[*:2]; DOTA = O=C(O)CN1CCN(CC(=O)O)CCN(CC(=O)*)CCN(CC(=O)O)CC1; Bip = N[C@@H](Cc1ccc(-c2ccccc2)cc1)C(=O)O; 2Nal = N[C@@H](Cc1ccc2ccccc2c1)C(=O)O; Gly(4-THP) = N[C@H](C(=O)O)C1CCOCC1; Nva(3-Et) = CCC(CC)[C@H](N)C(=O)O; Cha = N[C@@H](CC1CCCCC1)C(=O)O; AllylGly = C=CC[C@H](N)C(=O)O; Cba = N[C@@H](CC1CCC1)C(=O)O; Tle = CC(C)(C)[C@H](N)C(=O)O; Nle = CCCC[C@H](N)C(=O)O; Aze = O=C(O)[C@@H]1CCN1; CH2 = C([*:1])[*:2]; ξC = NC(CS)C(=O)O; Sar = CNCC(=O)O

Biological target: T1, DLL3 (Homo sapiens, UniProt Q9NYJ7)
T1 sequence (Q9NYJ7 27-618): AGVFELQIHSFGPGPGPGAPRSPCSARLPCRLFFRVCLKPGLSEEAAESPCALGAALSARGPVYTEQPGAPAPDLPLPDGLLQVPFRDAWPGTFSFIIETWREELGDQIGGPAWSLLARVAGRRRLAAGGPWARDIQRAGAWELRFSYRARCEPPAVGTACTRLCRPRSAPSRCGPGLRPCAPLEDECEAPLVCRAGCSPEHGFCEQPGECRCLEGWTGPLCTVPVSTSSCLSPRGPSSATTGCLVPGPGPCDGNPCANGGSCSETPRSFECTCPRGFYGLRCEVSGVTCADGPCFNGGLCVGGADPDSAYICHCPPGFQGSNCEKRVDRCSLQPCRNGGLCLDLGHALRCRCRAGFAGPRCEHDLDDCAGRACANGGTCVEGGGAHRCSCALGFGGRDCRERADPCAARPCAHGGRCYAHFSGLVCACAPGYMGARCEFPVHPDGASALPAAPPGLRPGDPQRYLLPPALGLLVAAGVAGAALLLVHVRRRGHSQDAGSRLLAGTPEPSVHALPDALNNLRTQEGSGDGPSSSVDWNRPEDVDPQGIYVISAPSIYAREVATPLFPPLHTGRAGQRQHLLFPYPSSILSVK
Experiment: SPR KD, biotinylated human DLL3 on streptavidin chip (Table 8)
Parameters: biotin (biotinylated)
Settings: biotinylated human DLL3 on streptavidin sensor chip, 25° C., 1:1 binding model; read-out: SPR KD
Source text: Biotinylated target ligand human DLL3 was immobilized on a streptavidin sensor chip. A reference surface was set up for nonspecific binding and refractive index changes. […] Sensorgram curves were fitted with 1:1 binding model, and affinity and kinetic parameters were obtained using Biacore Insight evaluation 4.0. software.

| Structure (SMILES) | Kd |
| --- | --- |
| CC(=O)N[C@@H](Cc1c[nH]c2ccccc12)C(=O)N[C@H](C(=O)N[C@H](C(=O)N[C@H]1CSSCC(C(=O)N[C@@H](Cc2c[nH]c3ccccc23)C(=O)N2CCC[C@H]2C(N)=O)NC(=O)[C@H]([C@@H](C)O)NC(=O)[C@@H](CCCCNC(=O)CN2CCN(CC(=O)O)CCN(CC(=O)O)CCN(CC(=O)O)CC2)NC(=O)[C@H](Cc2ccc3ccccc3c2)NC(=O)[C@H](CC(N)=O)NC(=O)[C@H](CC2CCNCC2)NC1=O)C1CCOCC1)[C@@H](C)O (stereo partly drawn) [compound 328, Ac-W-T-(THPG)-C(3)-[3-(4-piperidinyl)-Ala]-N-(2Nal)-Lys(DOTA)-(Thr)-C(3)-W-P-CONH2] (Ac-WT[Gly(4-THP)]C[Ala(piperidin-4-yl)]N[2Nal][dK](DOTA)T[ξC]WP-NH2; disulfide 4-10) | < 1 nM |
| CC[C@H](C)[C@H](NC(=O)[C@@H](NC(=O)[C@H](Cc1c[nH]c2ccccc12)NC(C)=O)[C@@H](C)O)C(=O)N[C@H]1CC=CC[C@@H](C(=O)N[C@@H](Cc2c[nH]c3ccccc23)C(=O)N2CCC[C@H]2C(N)=O)NC(=O)[C@H](CC(=O)O)NC(=O)[C@H](Cc2cnc[nH]2)NC(=O)[C@H](Cc2c[nH]c3ccccc23)NC(=O)[C@H](CC(N)=O)NC(=O)[C@H](CC(N)=O)NC1=O [compound 331] (Ac-WTI[AllylGly]NNWHD[AllylGly]WP-NH2; staple 4-10) | 100 to 300 nM |
| CC[C@H](C)[C@H](NC(=O)[C@@H](NC(=O)[C@H](Cc1ccc(-c2ccccc2)cc1)NC(C)=O)[C@@H](C)O)C(=O)N[C@H]1CSSC[C@@H](C(=O)N[C@@H](Cc2c[nH]c3ccccc23)C(=O)N2CCC[C@H]2C(=O)O)NC(=O)[C@H](CC(=O)O)NC(=O)[C@H](Cc2c[nH]cn2)NC(=O)[C@H](Cc2c[nH]c3ccccc23)NC(=O)[C@H](CC(N)=O)NC(=O)[C@H](CC(N)=O)NC1=O [compound 333, Ac-(BIP)-T-I-C(3)-N-N-W-H-D-C(3)-W-P-CONH2] (Ac-[Bip]TICNNWHDCWP-OH; disulfide 4-10) | 100 to 300 nM |
| CC[C@H](C)[C@H](NC(=O)[C@@H](NC(=O)[C@H](Cc1c[nH]c2ccccc12)NC(C)=O)[C@@H](C)O)C(=O)N[C@H]1CSSC[C@@H](C(=O)N[C@@H](Cc2c[nH]c3ccccc23)C(=O)N(C)CC(N)=O)NC(=O)[C@H](CC(=O)O)NC(=O)[C@H](Cc2cnc[nH]2)NC(=O)[C@H](Cc2c[nH]c3ccccc23)NC(=O)[C@H](CC(N)=O)NC(=O)[C@H](CC(N)=O)NC1=O [compound 334, Ac-W-T-I-C(3)-N-N-W-H-D-C(3)-W-(Sar)-CONH2] (Ac-WTICNNWHDCW[Sar]-NH2; disulfide 4-10) | 10 to 100 nM |
| CC[C@H](C)[C@H](NC(=O)[C@@H](NC(=O)[C@H](Cc1c[nH]c2ccccc12)NC(C)=O)[C@@H](C)O)C(=O)N[C@H]1CSSC[C@@H](C(=O)N[C@@H](Cc2c[nH]c3ccccc23)C(=O)N2CC[C@H]2C(N)=O)NC(=O)[C@H](CC(=O)O)NC(=O)[C@H](Cc2cnc[nH]2)NC(=O)[C@H](Cc2c[nH]c3ccccc23)NC(=O)[C@H](CC(N)=O)NC(=O)[C@H](CC(N)=O)NC1=O [compound 335, Ac-W-T-I-C(3)-N-N-W-H-D-C(3)-W-(Aze)-CONH2] (Ac-WTICNNWHDCW[Aze]-NH2; disulfide 4-10) | 1 to 10 nM |
| CC(=O)N[C@@H](Cc1c[nH]c2ccccc12)C(=O)N[C@H](C(=O)N[C@H](C(=O)N[C@H]1CSSC[C@@H](C(=O)N[C@@H](Cc2c[nH]c3ccccc23)C(=O)N2CCC[C@H]2C(N)=O)NC(=O)[C@H](CC(=O)O)NC(=O)[C@H](Cc2cnc[nH]2)NC(=O)[C@H](Cc2c[nH]c3ccccc23)NC(=O)[C@H](CC(N)=O)NC(=O)[C@H](CC(N)=O)NC1=O)C(C)(C)C)[C@@H](C)O [compound 336, Ac-W-T-(Tbg)-C(3)-N-N-W-H-D-C(3)-W-P-CONH2] (Ac-WT[Tle]CNNWHDCWP-NH2; disulfide 4-10) | 1 to 10 nM |
| CCC(CC)[C@H](NC(=O)[C@@H](NC(=O)[C@H](Cc1c[nH]c2ccccc12)NC(C)=O)[C@@H](C)O)C(=O)N[C@H]1CSSC[C@@H](C(=O)N[C@@H](Cc2c[nH]c3ccccc23)C(=O)N2CCC[C@H]2C(N)=O)NC(=O)[C@H](CC(=O)O)NC(=O)[C@H](Cc2cnc[nH]2)NC(=O)[C@H](Cc2c[nH]c3ccccc23)NC(=O)[C@H](CC(N)=O)NC(=O)[C@H](CC(N)=O)NC1=O [compound 337, Ac-W-T-(Env)-C(3)-N-N-W-H-D-C(3)-W-P-CONH2] (Ac-WT[Nva(3-Et)]CNNWHDCWP-NH2; disulfide 4-10) | 1 to 10 nM |
| CC(=O)N[C@@H](Cc1c[nH]c2ccccc12)C(=O)N[C@H](C(=O)N[C@H](C(=O)N[C@H]1CSSC[C@@H](C(=O)N[C@@H](Cc2c[nH]c3ccccc23)C(=O)N2CCC[C@H]2C(N)=O)NC(=O)[C@H](CC(=O)O)NC(=O)[C@H](Cc2cnc[nH]2)NC(=O)[C@H](Cc2c[nH]c3ccccc23)NC(=O)[C@H](CC(N)=O)NC(=O)[C@H](CC(N)=O)NC1=O)C1CCOCC1)[C@@H](C)O [compound 338, Ac-W-T-(THPG)-C(3)-N-N-W-H-D-C(3)-W-P-CONH2] (Ac-WT[Gly(4-THP)]CNNWHDCWP-NH2; disulfide 4-10) | 1 to 10 nM |
| CCCC[C@H](NC(=O)[C@@H](NC(=O)[C@H](Cc1c[nH]c2ccccc12)NC(C)=O)[C@@H](C)O)C(=O)N[C@H]1CSSC[C@@H](C(=O)N[C@@H](Cc2c[nH]c3ccccc23)C(=O)N2CCC[C@H]2C(N)=O)NC(=O)[C@H](CC(=O)O)NC(=O)[C@H](Cc2cnc[nH]2)NC(=O)[C@H](Cc2c[nH]c3ccccc23)NC(=O)[C@H](CC(N)=O)NC(=O)[C@H](CC(N)=O)NC1=O [compound 339, Ac-W-T-(Nle)-C(3)-N-N-W-H-D-C(3)-W-P-CONH2] (Ac-WT[Nle]CNNWHDCWP-NH2; disulfide 4-10) | 1 to 10 nM |
| CC(=O)N[C@@H](Cc1c[nH]c2ccccc12)C(=O)N[C@H](C(=O)N[C@@H](CC1CCCCC1)C(=O)N[C@H]1CSSC[C@@H](C(=O)N[C@@H](Cc2c[nH]c3ccccc23)C(=O)N2CCC[C@H]2C(N)=O)NC(=O)[C@H](CC(=O)O)NC(=O)[C@H](Cc2cnc[nH]2)NC(=O)[C@H](Cc2c[nH]c3ccccc23)NC(=O)[C@H](CC(N)=O)NC(=O)[C@H](CC(N)=O)NC1=O)[C@@H](C)O [compound 340, Ac-W-T-(CHA)-C(3)-N-N-W-H-D-C(3)-W-P-CONH2] (Ac-WT[Cha]CNNWHDCWP-NH2; disulfide 4-10) | 1 to 10 nM |
| CC(=O)N[C@@H](Cc1c[nH]c2ccccc12)C(=O)N[C@H](C(=O)N[C@@H](CC1CCC1)C(=O)N[C@H]1CSSC[C@@H](C(=O)N[C@@H](Cc2c[nH]c3ccccc23)C(=O)N2CCC[C@H]2C(N)=O)NC(=O)[C@H](CC(=O)O)NC(=O)[C@H](Cc2cnc[nH]2)NC(=O)[C@H](Cc2c[nH]c3ccccc23)NC(=O)[C@H](CC(N)=O)NC(=O)[C@H](CC(N)=O)NC1=O)[C@@H](C)O [compound 341, Ac-W-T-(CBA)-C(3)-N-N-W-H-D-C(3)-W-P-CONH2] (Ac-WT[Cba]CNNWHDCWP-NH2; disulfide 4-10) | 1 to 10 nM |
| CC[C@H](C)[C@H](NC(=O)[C@@H](NC(=O)[C@H](Cc1c[nH]c2ccccc12)NC(C)=O)[C@@H](C)O)C(=O)N[C@H]1CSCSC[C@@H](C(=O)N[C@@H](Cc2c[nH]c3ccccc23)C(=O)N2CCC[C@H]2C(N)=O)NC(=O)[C@H](CC(=O)O)NC(=O)[C@H](Cc2cnc[nH]2)NC(=O)[C@H](Cc2c[nH]c3ccccc23)NC(=O)[C@H](CC(N)=O)NC(=O)[C@H](CC(N)=O)NC1=O [compound 343] (Ac-WTICNNWHDCWP-NH2; linker 4-10 via CH2) | 10 to 100 nM |
